From patent US10550089B2, “Inhibitors of protease-activated receptor-2” (Heptares Therapeutics Limited, priority 2016, dated 2020)

Tests used:
[1] = target: T1, PAR2 (Homo sapiens (Human), UniProt P55085); assay: Trypsin activated FLPR Ca2+ mobilization assay for PAR2 antagonist activity; type: cell-based
Method: Trypin Activated FLPR Assay:
Protocol for Testing Compounds for PAR2 Antagonist Activity Using a Ca2+ Mobilization Assay
Calcium mobilization was measured using 1321N1 cells stably expressing human PAR2. Cells were seeded in 384-well plates at 4,000 cells per well in 20 μl DMEM with Glutamax supplemented with 10% FBS and incubated for 18-24 h at 37° C., 5% CO2 and 95% humidity. […] The addition was done using a FLIPR^TETRA (384-well head, Molecular Devices) and the response was read simultaneously to detect any agonist activity.

[2] = target: T1, PAR2; assay: FLPR dissociation rate assay (PAR2 mean residence time); type: cell-based; conditions: cells washed after compound incubation (60-240 min); peptide agonist SLIGLR-NH2; read-out: FLPR Residence time t1/2
From the text: FLPR Dissociation Rate Assay: Protocol for Testing Compounds for PAR2 Mean Residence Time
The peptide agonist SLIGLR-NH2 (ECso) was used in place of trypsin.

[3] = target: PAR1 (Homo sapiens (Human), UniProt P25116); assay: β-arrestin type assay by DiscoverX against PAR1
Sequence of PAR1 (P25116 22-425): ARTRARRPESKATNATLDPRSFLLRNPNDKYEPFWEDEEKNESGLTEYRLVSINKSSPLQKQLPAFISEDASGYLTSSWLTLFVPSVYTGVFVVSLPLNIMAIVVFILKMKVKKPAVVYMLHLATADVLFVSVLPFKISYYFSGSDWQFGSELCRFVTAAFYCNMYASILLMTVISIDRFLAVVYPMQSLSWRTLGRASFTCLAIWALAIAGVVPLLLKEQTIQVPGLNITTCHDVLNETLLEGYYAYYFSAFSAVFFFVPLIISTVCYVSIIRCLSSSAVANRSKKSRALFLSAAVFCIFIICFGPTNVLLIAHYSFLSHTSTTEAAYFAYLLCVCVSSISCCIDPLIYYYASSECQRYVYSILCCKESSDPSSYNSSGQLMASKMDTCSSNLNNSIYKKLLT

[4] = target: T1, PAR2; assay: IP-One HTRF assay for PAR2 antagonist activity (IP1 production); type: cell-based
Method: Protocol for Testing Compounds for PAR2 Antagonist Activity Using an IP-One HTRF Assay
Inositol monophosphate (IP1) production were measured in 1321N1 cells stably expressing human PAR2 using an IP-One HTRF assay kit (Cisbio). […] After 60 min at 37° C. cells were lysed and IP1 concentrations were detected according to the manufacturers protocol (Cisbio). Data were normalized to IP1 concentrations using a IP1 standard curve according to the manufacturers protocol (Cisbio).

[5] = 1321N1 cells stably expressing human PAR2, agonist Trypsin, Vorapaxar present to block PAR1, read-out: hPAR2 FLPR (Trypsin) IC50
[6] = 1321N1 cells stably expressing human PAR2, agonist SLIGRL-NH2, read-out: hPAR2 IPpone IC50
[7] = hPAR2 FLPR (Trypsin) IC50 (μM), 1321N1 cells stably expressing human PAR2, agonist Trypsin, Vorapaxar present to block PAR1
[8] = hPAR2 IPpone IC50 (μM), 1321N1 cells stably expressing human PAR2, agonist SLIGRL-NH2

T1 sequence (P55085 26-397): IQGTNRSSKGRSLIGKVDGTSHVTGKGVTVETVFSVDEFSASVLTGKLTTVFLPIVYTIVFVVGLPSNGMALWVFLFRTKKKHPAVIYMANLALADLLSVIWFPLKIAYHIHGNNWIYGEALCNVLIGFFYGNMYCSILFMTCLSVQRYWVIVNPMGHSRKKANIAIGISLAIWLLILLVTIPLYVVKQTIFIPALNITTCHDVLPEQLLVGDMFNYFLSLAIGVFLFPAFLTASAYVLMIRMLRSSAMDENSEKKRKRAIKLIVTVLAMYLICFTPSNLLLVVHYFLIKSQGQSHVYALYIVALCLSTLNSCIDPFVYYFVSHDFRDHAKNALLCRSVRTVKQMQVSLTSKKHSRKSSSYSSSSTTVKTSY

Row | SMILES | IC50 [1, 5] | residence time [2] | IC50 [4, 6] | also measured
1 | CCCc1cc(F)ccc1[C@H](O)c1ncc[nH]1 [Example 3, (S)-(4-Fluoro-2-propylphenyl)(1H-imidazol-2-yl)methanol] | 3.92 µM | 62 min | 1.29 µM | IC50 [3]: > 50 µM
2 | OC(c1ncc[nH]1)c1ccc(F)cc1N1CCCC1 (single isomer, unassigned) [Example 16, (4-Fluoro-2-(pyrrolidin-1-yl)phenyl)(1H-imidazol-2-yl)methanol] |  | 161 min |  | IC50 ([1]; hPAR2 FLPR (Trypsin) IC50 (μM)): 10.1 µM; IC50 ([4]; hPAR2 IPpone IC50 (μM)): 0.96 µM
3 | CCc1ccc2c(F)ccc(C(O)c3ncc[nH]3)n12 (single isomer, unassigned) [Example 35, (3-Ethyl-8-fluoroindolizin-5-yl)(1H-imidazol-2-yl)methanol] |  |  |  | IC50 [3]: > 50 µM
4 | CCc1coc2c(F)ccc([C@H](O)c3ncc[nH]3)c12 (single isomer, unassigned) [Example 42] |  | 119 min |  | IC50 [1, 7]: 3.09 µM; IC50 [4, 8]: 0.33 µM
5 | OC(c1ncc[nH]1)c1ccc(F)cc1C12CCCC1C2 (centres unmarked) [Example 31, (2-(Bicyclo[3.1.0]hexan-1-yl)-4-fluorophenyl)(1H-imidazol-2-yl)methanol] | > 41 µM |  | 4.32 µM | 
6 | Cc1coc2c(F)ccc(C(O)c3ncc[nH]3)c12 (centres unmarked) [Example 52, (7-Fluoro-3-methylbenzofuran-4-yl)(1H-imidazol-2-yl)methanol] | 3.27 µM |  | 0.97 µM | 
7 | OC(c1ncc[nH]1)c1ccc(F)c2ccc(Cl)n12 (centres unmarked) [Example 61, (3-Chloro-8-fluoro-indolizin-5-yl)-(1H-imidazol-2-yl)methanol] | 3.1 µM |  | 1.9 µM | 
8 | CCc1coc2c(F)ccc(C(O)c3ncc[nH]3)c12 (centres unmarked) [Example 40, (3-Ethyl-7-fluorobenzofuran-4-yl)(1H-imidazol-2-yl)methanol] |  |  |  | IC50 [1, 7]: 4.9 µM; IC50 [4, 8]: 0.75 µM
9 | C/C=C\c1cc(F)ccc1C(O)c1ncc[nH]1 (centres unmarked) [Example 9, (Z)-(4-Fluoro-2-(prop-1-enyl)phenyl)(1H-imidazol-2-yl)methanol] | 6.26 µM |  | 9.66 µM | 
10 | OC(c1ncc[nH]1)c1ccc(F)c2occ(C3CC3)c12 (single isomer, unassigned) [Example 45, (3-Cyclopropyl-7-fluorobenzofuran-4-yl)(1H-imidazol-2-yl)methanol] | 6.07 µM |  | 0.63 µM | 
